# ChEMBL document CHEMBL1132946 (J Med Chem, 2000)
# Columns and labels:
# [1] = molecular target: Adenosine receptor A2a (Bos taurus); experiment: biochemical
# [2] = species on record: Bos taurus; experiment: Selectivity, ratio of affinity towards adenosine A3 to A2A
# [3] = species on record: Bos taurus; experiment: Selectivity, ratio of affinity towards adenosine A2A to A1
# [4] = molecular target: T1, Adenosine receptor A1 (Bos taurus, UniProt P28190); experiment: biochemical
# T1 sequence (P28190 whole entry): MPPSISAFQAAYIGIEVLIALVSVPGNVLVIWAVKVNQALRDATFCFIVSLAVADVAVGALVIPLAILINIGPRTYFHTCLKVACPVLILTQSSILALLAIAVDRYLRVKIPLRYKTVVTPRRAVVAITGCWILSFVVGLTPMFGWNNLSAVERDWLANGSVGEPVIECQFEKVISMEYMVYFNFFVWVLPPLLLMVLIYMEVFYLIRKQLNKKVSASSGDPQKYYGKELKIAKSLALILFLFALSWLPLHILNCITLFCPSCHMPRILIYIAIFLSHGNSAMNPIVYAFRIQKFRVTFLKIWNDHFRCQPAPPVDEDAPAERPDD
# [5] = Selectivity, ratio of affinity towards adenosine A3 to A1
# [6] = molecular target: T2, Adenosine receptor A3 (Rattus norvegicus, UniProt P28647); experiment: Ability to displace the specific binding of [3H](R)-PIA to adenosine A3 receptor from rat testis membranes; type: cell membranes, Membrane
# T2 sequence (P28647 whole entry): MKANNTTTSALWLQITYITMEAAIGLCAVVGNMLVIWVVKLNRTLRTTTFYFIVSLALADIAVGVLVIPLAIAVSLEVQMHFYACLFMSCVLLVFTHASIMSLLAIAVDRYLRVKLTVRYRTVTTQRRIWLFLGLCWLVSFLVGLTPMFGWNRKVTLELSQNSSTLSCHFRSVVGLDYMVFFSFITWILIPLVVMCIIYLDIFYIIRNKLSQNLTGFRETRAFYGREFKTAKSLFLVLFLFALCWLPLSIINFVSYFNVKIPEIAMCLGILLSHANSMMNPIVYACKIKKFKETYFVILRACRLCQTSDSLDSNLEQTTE
# [7] = molecular target: T1, Adenosine receptor A1; experiment: Displacement of [3H]CHA from A1 Adenosine receptor of Bovine brain cortical membranes
SMILES,Ki [1] [µM],Selectivity [2],Selectivity [3],Ki [4] [µM],Selectivity [5],Ki [6] [µM],Ki [7] [µM]
COc1ccc2c(O)cc(-c3ccccc3)nc2n1,–,–,–,0.0016,–,> 10,–
COc1cc(-c2ccccc2)nc2nc(C)ccc12,–,–,–,6,–,> 10,–
O=c1ccc2c(O)cc(-c3ccccc3)nc2[nH]1,–,–,–,> 10,–,> 10,–
Oc1cc(-c2ccccc2)nc2nc(Oc3ccccc3)ccc12,–,–,–,0.026,–,> 10,–
CCn1c(-c2ccccc2)cc(=O)c2ccc(C)nc21,–,–,–,0.45,–,> 10,–
Cc1ccc2c(N)cc(-c3ccccc3)nc2n1,–,–,–,0.017,–,> 10,–
Cc1ccc2c(S)cc(-c3ccccc3)nc2n1,–,–,–,0.08,–,> 10,–
Cc1ccc2c(NN)cc(-c3ccccc3)nc2n1,–,–,–,0.1,–,> 10,–
Oc1cc(-c2ccccc2)nc2nc(F)ccc12,0.17,> 59,41,0.0041,> 2440,> 10,–
Cc1ccc2c(N=[N+]=[N-])cc(-c3ccccc3)nc2n1,> 10,–,–,> 10,–,> 10,–
Cn1c(=O)ccc2c(O)cc(-c3ccccc3)nc21,–,–,–,4.9,–,> 10,–
Nc1ccc2c(O)cc(-c3ccccc3)nc2n1,–,–,–,0.0053,–,> 10,–
OC[C@H]1O[C@@H](n2cnc3c(NC4CCCCC4)ncnc32)[C@H](O)[C@@H]1O,–,–,–,0.0013,–,0.025,–
Cc1ccc2c(O)cc(-c3ccc([N+](=O)[O-])cc3)nc2n1,–,–,–,0.0099,–,> 10,–
Cc1ccc2c(Oc3ccccc3)cc(-c3ccccc3)nc2n1,–,–,–,–,–,> 10,–
Cc1ccc2c(NC3CCCCC3)cc(-c3ccccc3)nc2n1,–,–,–,0.028,–,> 10,–
CCOC(=O)N1CCN(c2cc(-c3ccccc3)nc3nc(C)ccc23)CC1,–,–,–,1.2,–,> 10,–

# The next lines start with the values.
Ki [1] [µM],Selectivity [2],Selectivity [3],Ki [4] [µM],Selectivity [5],Ki [6] [µM],Ki [7] [µM],SMILES
0.47,10,43,0.011,418,4.6,–,Cc1ccc2c(O)cc(-c3ccccc3F)nc2n1
> 10,–,> 1920,0.0052,> 1920,> 10,–,CCOc1ccc2c(O)cc(-c3ccccc3)nc2n1
–,–,–,1.3,–,> 10,–,COc1cc(-c2ccccc2)nc2c1ccc(=O)n2C
–,–,–,8.7,–,> 10,–,Cc1ccc2c(N3CCNCC3)cc(-c3ccccc3)nc2n1
–,–,–,0.0053,–,6.1,–,Cc1ccc2c(O)cc(-c3ccc(F)cc3)nc2n1
–,–,–,0.55,–,> 10,–,Cc1ccc2c(N(C)C)cc(-c3ccccc3)nc2n1
–,–,–,6.9,–,> 10,–,Cc1ccc2ccc(-c3ccccc3)nc2n1
0.46,19,87,0.0053,1660,8.8,–,Cc1ccc2c(O)cc(-c3ccccc3)nc2n1
> 10,–,> 10,–,> 10,> 10,1,Cc1ccc2c(Cl)cc(-c3ccccc3)nc2n1
–,–,–,0.016,–,3,–,Oc1cc(-c2ccccc2)nc2ncccc12
–,–,–,0.00015,–,2.1,–,Oc1cc(-c2ccccc2)nc2nc(Cl)ccc12
–,–,–,0.0007,–,2.1,–,Oc1cc(-c2ccccc2)nc2nc(Br)ccc12
–,–,–,0.0013,–,0.418,–,CCCn1c(=O)c2[nH]c(-c3ccc(OCC(=O)NCCN)cc3)nc2n(CCC)c1=O [XANTHINE AMINE CONGENER]
